Results reported in patent publication US9776990B2, “Isoindolone derivatives” (AbbVie Inc., priority 2012, dated 2017).

Legend:
Ly18 = assay: Proliferation panel assay, Ly18; type: cell-based; details: 120 h; NHL, Ly18, 5 days; read-out: Cellular Proliferation EC50
Experimental: (§1) The impact of compounds of the Examples on cancer cell proliferation was determined using the breast cancer cell line MX-1 (ATCC) in a 3-day proliferation assay. MX-1 cells were maintained in RPMI supplemented with 10% FBS at 37 C.° and an atmosphere of 5% CO2. For compound testing, MX-1 cells were plated in 96-well black bottom plates at a density of 5000 cells/well in 90 μl of culture media and incubated at 37° overnight to allow cell adhesion and spreading. Compound dilution series were prepared in DMSO via a 3-fold serial dilution from 3 mM to 0.1 μM. […]
(§2) Luminescence readings from the Cell Titer Glo assay were normalized to the DMSO treated cells and analyzed using the GraphPad Prism software with sigmoidal curve fitting to obtain EC50s. The minimum significant ratio (MSR) was determined to evaluate assay reproducibility (Eastwood et al., (2006) J Biomol Screen, 11: 253-261). The overall MSR was determined to be 2.1 and a moving MSR (last six run MSR overtime) has been <2.
(§3) The compound of Example 40 was tested for its impact on proliferation of a panel of cancer cell line types (with specific cell lines tested) as set out in (Table 2). […] Cell proliferation data were analyzed as described above in the MX-1 proliferation assay to obtain the EC50 for the compounds reported in Table 2.

MDAMB231 = assay: Proliferation panel assay, MDAMB231; type: cell-based; details: Homo sapiens, MDA-MB-231, 120 h; Breast, MDAMB231, 5 days; read-out: Cellular Proliferation EC50
Experimental: as §1, §2, §3

Q: With Cc1[nH]c(-c2cc(NS(C)(=O)=O)ccc2Oc2ccccc2)c2c1C(=O)CCC2 [Example 40, N-[3-(3-methyl-4-oxo-4,5,6,7-tetrahydro-2H-isoindol-1-yl)-4-phenoxyphenyl]methanesulfonamide] as the molecule, how does the EC50 (Ly18) read?
A: 370 nM

Q: What about the EC50 (MDAMB231) of the same molecule?
A: 310 nM
